# Laboratory results published in patent US12691100B2, “NMT inhibitor treatment of a senescence-associated disease or disorder of the liver” (Imperial College Innovations Limited, priority 2020, dated 2026).
# Assays:
# MCF7 cancer cells = assay: Senescence induction by chemotherapeutic drugs (BrdU, SA-β-Galactosidase, p21CIP1); assay type: cell-based; settings: 7 days after treatment, doxorubicin 200 nM, etoposide 2 μM, cisplatin 10 μM; for BrdU incorporation (cell division): FIG. 8A; for SA-β-Galactosidase activity / p21^CIP1 expression: FIGS. 8B-C
# Experimental: (§1) IMR90 cells were used to generate inducible ER:RAS (hereinafter iRAS) cells to model Oncogene induced senescence (OIS), through retroviral infection of pLNC-ER:RAS-neo into IMR90 cells followed by selection with Neomycin. IMR90 cells containing the pLNC-ER:RAS plasmid backbone pLXSN were infected in parallel to assess leakiness in the pLNC-ER:RAS system. Treatment with 100 nM 4OHT (Sigma, in DMSO) was used to induce IMR90 ER:RAS cells to undergo oncogene induced senescence (OIS). Therapy induced senescence (TIS) was induced in IMR90 cells by treatment with 33 μM (50 ug/ml) bleomycin sulphate (Generon, HY-17565) for 24 hours, 20 μM palbociclib (Selleckchem, S1116) for 7 days or 100 nM doxorubicin (Cayman chemical, 15007) for 7 days. Senescence was induced in SK-HEP-1 cells by treatment with 2 μM etoposide (Sigma-Aldrich, E1383) for 7 days (FIGS. 4A-C). HCT-116 senescence was induced by 250 nM treatment with doxorubicin (Cayman chemical, 15007) for 48 hours followed by 5 days culture in media without chemotherapy (FIG. 5), or by treatment with 100 nM doxorubicin, 2 μM etoposide or 100 μM cisplatin for 3 days followed by 4 days culture in media without chemotherapy (FIGS. 6A-7C). Senescence was induced in MCF7 by 200 nM treatment with doxorubicin for 7 days, 2 μM etoposide for 7 days or 10 μM cisplatin for 7 days (FIGS. 8A-9C).
# (§2) BrdU Incorporation—Cell proliferation was assessed through incorporation of nucleotide analogue 5-Bromo-2′-deoxyuridine (BrdU) into cells. 2×10^3 or 8×10^3 IMR90 cells were seeded into 96-well plates in duplicate for DMSO/palbociclib treated and bleomycin/doxorubicin treated cells respectively. 10 μM BrdU was added to cells 18 h before desired time point and wells were then washed in PBS and fixed using 4% paraformaldehyde (w/v, PBS) for 45 minutes to 1 hour before removal and washing 3 times with PBS. BrdU incorporation was assessed via immunofluorescence and high-content analysis (see section ‘Immunofluorescence & High throughput microscopy’).
# (§3) Immunofluorescence staining was carried out by first fixing wells of 96 well plate at desired timepoint for 1 hour using 4% PFA (w/v, in PBS) followed by washing 3 times with PBS. Wells were then permeabilized using 0.2% Triton® X-100 (v/v, PBS) for 10 min or with 0.5% Triton® X-100 (v/v, PBS) for COPI staining. Wells were then washed twice with PBS to halt permeabilization and then non-specific antibody binding blocked by incubation with a blocking solution for 1 hour at RT. Blocking solution contained 1% BSA (w/v, PBS) supplemented with 0.4% Fish Skin Gelatin (v/v, PBS). Primary antibodies were diluted in respective blocking solution (see ‘Antibodies’ for dilutions), blocking solution removed from well and incubated with primary antibody solution for 1 hour at RT. For BrdU staining primary antibody solution is supplemented with 0.5 U/ul DNase (Sigma) and 1 mM MgCl2 and incubation times reduced to 30 minutes. Following incubation, primary antibody was then removed by washing 3 times with PBS. Secondary antibodies conjugated to Alexa-594 or Alexa-488 fluorophores were then diluted in blocking solution added to wells to be incubated in dark for 1 hour. Secondary antibody was then removed by washing 3 times with PBS and nuclei counterstaining with 1 μg/mL DAPI (w/v, PBS) for 10 minutes. Wells were then washed with PBS three times.
# (§4) MCF7 cancer cells were treated with doxorubicin, etoposide or cisplatin (to induce senescence) or DMSO (as a control). 7 days after treatment, analysed BrdU incorporation (to assess cell division), SA-β-Galactosidase activity and p21^CIP1 expression (as markers of senescence) were analysed. […] Media and compounds were replenished after 72 h of treatment and cultured for 48 h more before fixation and measurement of survival via high-throughput microscopy. DMSO/Doxorubicin/Etoposide (n=3), Cisplatin (n=2).
# HCT116 = assay: as above; assay type: cell-based, human; settings: 7 days after treatment, doxorubicin 100 nM, etoposide 2 μM, cisplatin 100 μM; for BrdU incorporation (cell division): FIG. 6A; for SA-β-Galactosidase activity / p21^CIP1 expression: FIGS. 6B-C
# Experimental: as §1, §2, §3
# as §4, with “In a second experiment, HCT116” for “MCF7 cancer cells”, “treatment,” for “treatment, analysed”, “(n=4),” for “(n=3),”, “(n=1).” for “(n=2).”
# IMR90 ER:RAS cells = assay: Senolytic activity under IRE1 inhibition with KIRA6; assay type: cell-based, human; settings: 600 nM KIRA6 from day 4 post-induction; Compound 1 or 2 from day 7; read at day 12; FIGS. 15A-B
# Experimental: High-throughput microscopy survival assay—To assess senolytic effect of drugs, cells were cultured for 7 days, culture media was changed to DM0.5 media and drugs in DMSO were added (<5% v/v final concentration), drugs were replenished after 3 days if assay length was longer than 72 h. Wells were fixed in 4% PFA for 1 hour at day 10 to 14, washed 3 times with PBS and then stained with 1 μg/mL DAPI (w/v, PBS) for 10 minutes. Wells were then washed 3 times with PBS. Optionally plates could be stored at 4° C. for up to 2 weeks and DAPI stained. Image acquisition of DAPI stained cells was performed on an automated InCell Analyser 2000 (GE Healthcare®) and high-content analysis on the InCell Investigator 2.7.3 software used to quantify number of DAPI positive cells per well. A top-hat method was used to segment cell-nuclei based on DAPI stained area and a minimum nuclear area threshold of 80 μm used to exclude debris. For cancer cell lines, nuclear area threshold was reduced to 40 μm. Survival was measured as cell counts relative to DMSO treated quiescent or senescent cells.
# To investigate whether the activation of UPR caused by NMT inhibition in senescent cells was responsible for the senolytic potential of NMT inhibitors, cells were treated with KIRA6, a selective inhibitor of IRE1, a kinase necessary for the UPR. IMR90 ER:RAS cells undergoing senescence (after induction with 4OHT), were treated with 600 nM KIRA6 (an IRE1 inhibitor) on day 4 post-induction. On day 7 post-induction, cells were treated with Compound 1 or 2 and 600 nM KIRA6. […] Both NMT inhibitor and Kira6 were replenished 3 days after addition of NMT inhibitor (at day 10 post-induction). Data is shown as mean±SD, n represents independent biological experiments.
# [1] = literature: Wilson, O'Connor et al. 2010; cited from earlier work
SA-β-Galactosidase activity (HCT116),p21^CIP1 expression (HCT116),Compound,BrdU incorporation (cell division) (MCF7 cancer cells),SA-β-Galactosidase activity (MCF7 cancer cells),p21^CIP1 expression (MCF7 cancer cells),BrdU incorporation (cell division) (HCT116),Effect of KIRA6 on the senolytic activity of NMT inhibitors (IMR90 ER:RAS cells),Side effects [1]
upregulated,upregulated,COc1cccc2c1C(=O)c1c(O)c3c(c(O)c1C2=O)C[C@@](O)(C(=O)CO)C[C@@H]3O[C@H]1C[C@H](N)[C@H](O)[C@H](C)O1 [doxorubicin],stopped proliferating,upregulated,upregulated,stopped proliferating,,
upregulated,upregulated,COc1cc([C@@H]2c3cc4c(cc3[C@@H](O[C@@H]3O[C@@H]5CO[C@@H](C)O[C@H]5[C@H](O)[C@H]3O)[C@H]3COC(=O)[C@H]23)OCO4)cc(OC)c1O [etoposide],stopped proliferating,upregulated,upregulated,stopped proliferating,,
,,"CC(C)(C)c1nc(-c2ccc(NC(=O)Nc3cccc(C(F)(F)F)c3)c3ccccc23)c2c(N)nccn12 [KIRA6, reference compound]",,,,,prevented the senolytic activity of NMT inhibitors,
,,CC1(C)CCC(c2ccc(Cl)cc2)=C(CN2CCN(c3ccc(C(=O)NS(=O)(=O)c4ccc(N[C@H](CCN5CCOCC5)CSc5ccccc5)c(S(=O)(=O)C(F)(F)F)c4)cc3)CC2)C1 [ABT-263],,,,,,significant neutropenia and thrombocytopenia

Compound,SA-β-Galactosidase activity (HCT116),p21^CIP1 expression (HCT116),BrdU incorporation (cell division) (MCF7 cancer cells),SA-β-Galactosidase activity (MCF7 cancer cells),p21^CIP1 expression (MCF7 cancer cells),BrdU incorporation (cell division) (HCT116),Effect of KIRA6 on the senolytic activity of NMT inhibitors (IMR90 ER:RAS cells),Side effects [1]
N.N.[Cl][Pt][Cl] [cisplatin],upregulated,upregulated,stopped proliferating,upregulated,upregulated,stopped proliferating,,
